Data set [1] concerns H22. As to the kind of experiment: Antitumor activity against […] xenografted in ICR mouse assessed as reduction in tumor growth at 20 mg/kg/day, iv for 21 days. The conditions noted are these: time 21.0 day. Type of data set: functional, organism-based.
Data set [2] in a line: Toxicity in ICR mouse xenografted with […] cells assessed as effect on body weight at 20 mg/kg/day, iv for 21 days. The note with it: in vivo, 504 h, time 21 day. Type of data set: organism-based. On the technique in general: Xenograft models place foreign cells or tissue in a host animal.
Data set [3] can be described thus: Inhibition of pig brain tubulin polymerisation incubated for 30 mins and measured every 2 mins for 60 mins by spectrophotometric method. Type of data set: tissue-based, Sus scrofa.
Data set [4] in a line: Toxicity in ICR mouse xenografted with […] cells assessed as effect on liver morphological changes at 20 mg/kg/day, iv for 21 days by H and E staining based assay. Type of data set: organism-based. The note with it: in vivo, 504 h, time 21 day.
Data set [5] can be described thus: Toxicity in ICR mouse xenografted with […] cells assessed as effect on heart morphological changes at 20 mg/kg/day, iv for 21 days by H and E staining based assay. Type of data set: organism-based. The note with it: in vivo, 504 h, time 21 day.
A short description of data set [6]: Toxicity in ICR mouse xenografted with […] cells assessed as effect on spleen morphological changes at 20 mg/kg/day, iv for 21 days by H and E staining based assay. The conditions noted are these: in vivo, 504 h, time 21 day. In kind it is organism-based.
Data set [7] in a line: Aqueous solubility of the compound in phosphate buffer at pH 7.4 by HPLC-UV analysis. In kind it is physicochemical.
Data set [8] in a line: Acute toxicity in ICR mouse assessed as animal survival at 409.6 mg/kg, iv measured for 14 days. The conditions noted are these: in vivo, time 14 day. In kind it is organism-based.
Data set [9] in a line: Acute toxicity in ICR mouse assessed as animal survival at 512 mg/kg, iv measured for 14 days. In kind it is organism-based. The conditions noted are these: in vivo, time 14 day.
The nature of data set [10]: Acute toxicity in ICR mouse assessed as animal survival at 327.7 mg/kg, iv measured for 14 days. Type of data set: organism-based. The note with it: in vivo, time 14 day.
Data set [11] is described as follows: Toxicity in ICR mouse xenografted with […] cells assessed as effect on lungs morphological changes at 20 mg/kg/day, iv for 21 days by H and E staining based assay. In kind it is organism-based. The note with it: in vivo, 504 h, time 21 day.
For data set [12], the system named is H22. As to the kind of experiment: Antitumor activity against […] xenografted in ICR mouse assessed as reduction of tumor weight at 20 mg/kg/day, iv for 21 days. Type of data set: functional. The note with it: 504 h, time 21 day.
A short description of data set [13]: Aqueous solubility of the compound in aqueous HCl at pH 2 by HPLC-UV analysis. Type of data set: physicochemical.
Data set [14] in a line: Toxicity in ICR mouse xenografted with […] cells assessed as effect on kidney morphological changes at 20 mg/kg/day, iv for 21 days by H and E staining based assay. In kind it is organism-based. The note with it: in vivo, 504 h, time 21 day.
Data set [15] in a line: Acute toxicity in ICR mouse assessed as animal survival at 640 mg/kg, iv measured for 14 days. The note with it: in vivo, time 14 day. In kind it is organism-based.
The nature of data set [16]: Acute toxicity in iv dosed ICR mouse. Type of data set: organism-based. The conditions noted are these: in vivo.
Data set [17] is described as follows: Acute toxicity in ICR mouse assessed as animal survival at 800 mg/kg, iv measured for 14 days. In kind it is organism-based. The note with it: in vivo, time 14 day.
Data set [18] relates to Bel-7402. Kind of data set: Antiproliferative activity against ADR-resistant human Bel-7402 cells assessed as reduction in cell viability incubated for 72 hrs by MTT assay. In kind it is functional, cell-based. Background: Tetrazolium assays rely on reduction of a dye to a coloured formazan, in cell work by metabolically active cells.
Data set [19] has as its system K562.
Description: (§1) Antiproliferative activity against human K562 cells assessed as reduction in cell viability incubated for 72 hrs by MTT assay
Data set [20] deals with H22. As to the kind of experiment: Antitumor activity against […] xenografted in ICR mouse assessed as reduction in tumor weight at 6 mg/kg, iv dosed every other day for 21 days. In kind it is functional. The note with it: 504 h, time 21 day.
For another data set, the system named is K562/VCR. As to the kind of experiment: Antiproliferative activity against VCR resistant human K562/VCR cells assessed as reduction in cell viability incubated for 72 hrs by MTT assay. In kind it is functional, cell-based.
In data set [21] the test system is Bel-7402. As to the kind of experiment: Antiproliferative activity against human Bel-7402 cells assessed as reduction in cell viability incubated for 72 hrs by MTT assay. In kind it is functional, cell-based.
The next data set deals with L02. As to the kind of experiment: Cytotoxicity against human L02 cells assessed as reduction in cell viability incubated for 72 hrs by MTT assay. In kind it is cell-based. The note with it: L02, 72 h.
In data set [22] the test system is HCT-8. As to the kind of experiment: Antiproliferative activity against human HCT-8 cells assessed as reduction in cell viability incubated for 72 hrs by MTT assay. In kind it is functional, cell-based.
Data set [23] can be described thus: Resistant index, ratio of IC50 for taxol-resistant human HCT-8 cells to IC50 for human HCT-8 cells. In kind it is functional.
The test system of the next data set is A-431. Kind of data set: Antiproliferative activity against human A-431 cells assessed as reduction in cell viability incubated for 72 hrs by MTT assay. Type of data set: functional, cell-based. The conditions noted are these: A-431, 72 h.
The subject of data set [24] is K562. Kind of data set: cells. The conditions noted are these: Homo sapiens, K562, 72 h.
Description: as §1
Data set [25] concerns H22. As to the kind of experiment: Antiproliferative activity against mouse H22 cells assessed as reduction in cell viability incubated for 72 hrs by MTT assay. In kind it is functional, cell-based. The note with it: H22, 72 h.
Data set [26] is filed under the species Sus scrofa. As to the kind of experiment: Inhibition of [3H]colchicine binding to biotinylated pig brain tubulin at 5 uM incubated for 2 hrs in presence of GTP by competitive scintillation proximity assay. Type of data set: tissue-based. (In general: Scintillation proximity formats need no separation of bound from free tracer.)
Data set [27] is described as follows: Metabolic stability in rat plasma assessed as parent compound remaining at 100 nM measured after 3 hrs by HPLC analysis. Type of data set: ADME, cell-free. The conditions noted are these: read-out: Stabilty.
A further data set deals with MDA-MB-231. Kind of data set: Antiproliferative activity against human MDA-MB-231 cells assessed as reduction in cell viability incubated for 72 hrs by MTT assay. In kind it is functional, cell-based. The note with it: MDA-MB-231, 72 h.
The species entered for data set [28] is Sus scrofa. As to the kind of experiment: Inhibition of [3H]colchicine binding to biotinylated pig brain tubulin at 1 uM incubated for 2 hrs in presence of GTP by competitive scintillation proximity assay. In kind it is tissue-based.
The next data set concerns HepG2. Kind of data set: cells. The note with it: Homo sapiens, HepG2, 72 h.
Data set [29] in a line: Resistant index, ratio of IC50 for ADR-resistant human Bel-7402 cells to IC50 for human Bel-7402 cells. In kind it is functional.
A short description of data set [30]: Resistant index, ratio of IC50 for VCR resistant human K562 cells to IC50 for human K562 cells. In kind it is functional.
Data set [31] is described as follows: Metabolic stability in rat plasma assessed as parent compound remaining at 100 nM measured after 60 mins by HPLC analysis. In kind it is ADME, cell-free. The conditions noted are these: 1 h, 0.1 µM.
For data set [32], the system named is HCT-8. Kind of data set: Antiproliferative activity against taxol-resistant human HCT-8 cells assessed as reduction in cell viability incubated for 72 hrs by MTT assay. Type of data set: functional, cell-based.
Where [33] appears, read: Homo sapiens, HCT-8, 72 h, read-out: IC50.
The mark [34] stands for this setting: Homo sapiens, Bel-7402, 72 h, read-out: IC50.

Activity calls are given as the source filed them. The calls are words filed in the database; no cut-off is given here.

Turning to `COc1ccc(CNC(=O)c2cc(F)ccc2N2CCOCC2)cc1OP(=O)([O-])[O-].[Na+].[Na+]`, the outcome in the data set with H22 [1] was Active. Besides, the Activity result in [2], in [4], in [5], in data set [6], in [11] and in data set [14] was “Non-Toxic” each time. Moreover, half-maximal inhibition in data set [3] (IC50) was put at 6.18 µM. The solubility in [7] and in data set [13] was over 1000 µg/mL in each case. Besides, the survival at 336 h in data set [8] is 80%; in [9], 70%; in data set [10], 90%; in [15], 50%; in data set [17] it was 20%. Also, the inhibition in vivo – broadly, the share of the control response that was lost under treatment – at 20 mg/kg/day in the data set on H22 [12] worked out at 71.4%. For the same compound, in [16], the 50% lethal dose (LD50) (as a rule, the dose expected to kill half of the subjects tested) worked out at 600 mg/kg.
For the compound `CC(=O)O[C@H]1C(=O)[C@@]2(C)[C@H]([C@H](OC(=O)c3ccccc3)[C@]3(O)C[C@H](OC(=O)[C@H](O)[C@@H](NC(=O)c4ccccc4)c4ccccc4)C(C)=C1C3(C)C)[C@]1(OC(C)=O)CO[C@@H]1C[C@@H]2O` [PACLITAXEL], the IC50 entry in the data set on Bel-7402 [18] (bel-7402), in the data set on K562 [19], in the data set on K562/VCR (k562/vcr) and in the data set on Bel-7402 [21] (bel-7402) was “Not Active” each time. For the same compound, the inhibition in vivo at 6 mg/kg in the data set on H22 [20] amounted to 72.7%.
Consider `CSc1ccc(COC(=O)c2cc([N+](=O)[O-])ccc2N2CCOCC2)cc1`, for which the IC50 (as a rule, the concentration that inhibits the measured activity by half) in the data set on L02 was found to be 0.044 µM; in the data set with HCT-8 [22] (setting [33]), 0.027 µM; in data set [3] it was 2.99 µM; with A-431 it was 0.01 µM; in the data set with K562 [24], 0.01 µM; in the data set with H22 [25] it was 0.025 µM. Moreover, the IC50 in the data set with Bel-7402 [18] (setting [34]) came out at 0.268 µM; in the data set with MDA-MB-231, 0.031 µM; with HepG2 it was 0.033 µM; with HCT-8 [32] (setting [33]), 0.221 µM; with K562/VCR (Homo sapiens, K562/VCR, 72 h, read-out: IC50), 0.297 µM; in the data set on Bel-7402 [21] (setting [34]), 0.056 µM. Moreover, the “Ratio IC50” value is listed as 8.2 in [23], 4.8 in [29] and 29.7 in data set [30]. The inhibition (as a rule, the percentage by which the read-out fell short of the control) was 85.7% in the data set listed under Sus scrofa [26] and 58% in the data set filed under Sus scrofa [28]. Besides, the inhibition in vivo at 20 mg/kg/day in the data set with H22 [12] turned out to be 66.7%. Besides, the remaining at 3 h, 0.1 µM in data set [27] was determined as 72.6%. Further, the Stabilty result in data set [31] was “Stable”.
For `CCOC(=O)[C@H](CCc1ccccc1)N[C@@H](C)C(=O)N1CCC[C@H]1C(=O)O` [ENALAPRIL], the Stabilty result in [31] is given as “Unstable”.
As to `COc1cccc2c1C(=O)c1c(O)c3c(c(O)c1C2=O)C[C@@](O)(C(=O)CO)C[C@@H]3O[C@H]1C[C@H](N)[C@H](O)[C@H](C)O1.Cl` [DOXORUBICIN HYDROCHLORIDE], the half-maximal inhibitory concentration (IC50) entry in the data set with HCT-8 [22] (hct-8), in the data set on K562 [19], with HCT-8 [32] (hct-8) and with K562/VCR (k562/vcr) was “Not Active” in each case. In [29], the “Ratio IC50” value worked out at 6.3.

These data come from ChEMBL document CHEMBL4813973, “Discovery of novel N-benzylbenzamide derivatives as tubulin polymerization inhibitors with potent antitumor activities” (Eur J Med Chem, 2021).
